Assay results reported in publication PMC9243000 (Cell Discovery, 2022).
Like-named read-outs stand apart in the source and are kept apart here. Positions of bridges follow the written chain, without caps; N, C: chain ends. Residues, ends and D or L forms follow the SMILES beside them. Chains are numbered I, II in the order given. No end group written: not given here.

Columns and labels:
SARS-CoV-2 (HKU001a) = conditions: for 50% inhibitory concentration IC50: HKU001a, 18 h; for antiviral activity in the low salt condition: low salt (30 mM, PBS/5), plaque reduction assay
[1] = test system: endosomal acidification in VeroE6 cells; assay: Endosomal acidification assay; format: cell-based; conditions: 4H30 25 μg/mL, bafilomycin A1 50 nM, pH-sensitive dye
Description: Endosomal acidification was detected with a pH-sensitive dye (pHrodo green dextran, Invitrogen, Cat^# P35365) according to the manufacturer’s instructions as previously described but with slight modification. First, VeroE6 cells were treated with DMEM, 4H30 (25.0 μg/mL), or bafilomycin A1 (50.0 nM) at 4 °C for 15 min. Second, VeroE6 cells were added with 100 μg/mL of pH-sensitive dye and DAPI and then incubated at 4 °C for 15 min. Before taking images, cells were further incubated at 37 °C for 15 min and then cells were washed twice with PBS. Finally, PBS was added to cells and images were taken immediately with a confocal microscope (Carl Zeiss LSM 800, Germany).
Supplementary Fig. S7. 4H30 could inhibit endosomal acidification in VeroE6 cells. VeroE6 cells were treated with pH-sensitive dye (green in low pH endosomes) and the indicated inhibitor 4H30 (25 μg/mL), bafilomycin A1 (BA1, 50 nM) or DMEM. Nuclei were stained as blue. Cell only without treatment was the negative control (Neg). Representative live-cell images were taken by confocal microscope. Experiments were repeated with two independent biological samples. […]

[2] = test system: spike-ACE2-mediated cell fusion in 293T cells; format: cell-based; conditions: 4H30 40 μM, bafilomycin A1 50 nM, remdesivir 80 μM; 6 h post coculture
[3] = test system: fusion between 293T-Spike and Calu-3 cells; format: cell-based
SARS-CoV-2 [4] = conditions: cited from earlier work
[5] = test system: SARS-CoV-2 (B.1.617.2, Delta); assay: Post-exposure antiviral assay in hamsters, Delta; format: in vivo; conditions: for syncytia formation in hamster lungs: Delta, compared with mock-treated hamsters; for inhibition of viral replication in hamster lungs (PFU/lung) / lung inflammation: in vivo, hamster
SARS-CoV-2 B.1.1.63 = conditions: B.1.1.63, 18 h
[6] = Cytotoxicity MTT assay, VeroE6; format: cell-based; conditions: VeroE6 cells, 24 h at 37 °C, DMEM with 1% FBS, n = 3, read-out: 50% toxicity concentration (TC50)
Description: (§1) Cytotoxicity of peptides was determined by the detection of 50% cytotoxic concentration (CC50) using a tetrazolium-based colorimetric MTT assay. Briefly, cells were seeded in a 96-well cell culture plate at an initial density of 4 × 10^4 cells per well in DMEM supplemented with 10% FBS and incubated overnight. Cell culture media were removed and then DMEM supplemented with various concentrations of peptides and 1% FBS were added to each well. After 24 h incubation at 37 °C, MTT solution (5 mg/mL, 10 μL per well) was added to each well for incubation at 37 °C for 4 h. Then, 100 μL of 10% SDS in 0.01 M HCl was added to each well. After further incubation at room temperature with shaking overnight, the plates were read at OD570 using VictorTM X3 Multilabel Reader (PerkinElmer, USA). Cell culture wells without peptides were used as the experiment control and the medium only served as a blank control.

[7] = ELISA binding to heparan sulfate; conditions: HS 300, 75 ng coated on ELISA plate; detection by anti-HBD2; compared with BSA; n = 4
SARS-CoV-2 [8] = assay: Viral attachment assay at 4 °C (RT-qPCR); format: cell-based
[9] = intranasal, three doses of 0.5 mg/kg within two days; 4 days post-inoculation
[10] = Cytotoxicity MTT assay, Calu-3; format: cell-based; conditions: human, Calu-3 cells, 24 h at 37 °C, DMEM with 1% FBS, n = 3, read-out: 50% toxicity concentration (TC50)
Description: as §1

SARS-CoV-2 (B.1.1.63) [11] = assay: Pre-exposure antiviral assay in hamsters; format: in vivo; conditions: compared with mock-treated hamsters
SARS-CoV-2 [12] = assay: Viral release assay; format: cell-based
spike-ACE2 binding = spike-ACE2 binding (Severe acute respiratory syndrome coronavirus 2, UniProt P0DTC2); assay: ELISA of spike binding to ACE2; conditions: ACE2 (150 ng) coated on ELISA plate; n = 6
[13] = mice; intranasal, three doses of 0.5 mg/kg within two days; compared with the PBS group; three mice in each group
MERS-CoV = conditions: 18 h
SARS-CoV-2 [14] = assay: Viral RNA copies in VeroE6 cell lysate after pretreatment (RT-qPCR); format: cell-based; conditions: virus pretreated by 4H30 (25 μg/mL), DMEM-treated virus 50-fold, n = 4
[15] = ELISA binding to chondroitin sulfate; conditions: CS 300, 75 ng coated on ELISA plate; detection by anti-HBD2; compared with BSA; n = 4
SARS-CoV-2 (B.1.1.63) [16] = assay: Post-exposure antiviral assay in hamsters, B.1.1.63; conditions: hamster, in vivo
SARS-CoV-2 [17] = assay: Plaque assay after 10,000-fold dilution of treated virus; format: cell-based

CC[C@H](C)[C@H](NC(=O)[C@H](C)NC(=O)CN)C(=O)N[C@@H](CS)C(=O)N[C@@H](Cc1c[nH]cn1)C(=O)N1CCC[C@H]1C(=O)N[C@H](C(=O)N[C@@H](Cc1ccccc1)C(=O)N[C@@H](CS)C(=O)N1CCC[C@H]1C(=O)N[C@@H](CCCNC(=N)N)C(=O)N[C@@H](CCCNC(=N)N)C(=O)N[C@@H](Cc1ccc(O)cc1)C(=O)N[C@@H](CCCCN)C(=O)N[C@@H](CCC(N)=O)C(=O)N[C@H](C(=O)NCC(=O)N[C@H](C(=O)N[C@@H](CS)C(=O)NCC(=O)N[C@@H](CC(C)C)C(=O)N1CCC[C@H]1C(=O)NCC(=O)N[C@H](C(=O)N[C@@H](CCCCN)C(=O)N[C@@H](CS)C(=O)N[C@@H](CS)C(=O)N[C@@H](CCCCN)C(=O)N[C@@H](CCCCN)C(=O)N1CCC[C@H]1C(=O)O)[C@@H](C)O)[C@@H](C)O)[C@@H](C)CC)C(C)C [H30] (H-GAICHPVFCPRRYKQIGTCGLPGTKCCKKP-OH; N-terminus and C-terminus assumed)
50% inhibitory concentration IC50 (SARS-CoV-2 (HKU001a)): > 25 µg/mL | antiviral activity in the low salt condition (SARS-CoV-2 (HKU001a)): more effective in the low salt condition

CO/C1=C\C(C)=C\[C@@H](C)[C@@H](O)[C@@H](C)C/C(C)=C/C=C/[C@H](OC)[C@@H]([C@@H](C)[C@@H](O)[C@H](C)[C@@]2(O)C[C@@H](O)[C@H](C)[C@@H](C(C)C)O2)OC1=O [bafilomycin A1]
inhibition of endosomal acidification in live cells [1]: could inhibit | inhibition of spike-ACE2-mediated cell fusion, 293T-Spike + 293T-ACE2 [2]: inhibition | inhibition of cell-cell fusion, 293T-Spike + Calu-3 [3]: could not inhibit | cell fusion size, 293T-Spike + Calu-3 ([3]; 4H30 125 μg/mL, BA1 50 nM, 6-8 h post-coculture, non-fusion cell size ~10 μm): > 40 μm

CN(C)C(=O)COC(=O)Cc1ccc(OC(=O)c2ccc(NC(=N)N)cc2)cc1 [camostat]
inhibition of SARS-CoV-2 in hamsters by camostat alone (SARS-CoV-2 [4]): not significantly inhibited | inhibition of cell-cell fusion, 293T-Spike + Calu-3 [3]: could show the inhibition

CCC(CC)COC(=O)[C@H](C)N[P@](=O)(OC[C@H]1O[C@@](C#N)(c2ccc3c(N)ncnn23)[C@H](O)[C@@H]1O)Oc1ccccc1 [remdesivir, reference compound]
syncytia formation in hamster lungs [5]: syncytia could be easily observed | inhibition of viral replication in hamster lungs (PFU/lung) [5]: 33 fold | lung inflammation [5]: could reduce lung inflammation | inhibition of spike-ACE2-mediated cell fusion, 293T-Spike + 293T-ACE2 [2]: without inhibition

I: GAICHPVFCPRRYKQIGTCGLPGTKCCKKPKK / II: GAICHPVFCPRRYKQIGTCGLPGTKCCKKPK / III: GAICHPVFCPRRYKQIGTCGLPGTKCCKKP / IV: GAICHPVFCPRRYKQIGTCGLPGTKCCKKP (amide I:31-IV:C, I:32-II:C, II:31-III:C; cysteines drawn unpaired) [4H30]
IC50 (SARS-CoV-2 B.1.1.63): 0.48 µg/mL | CC50 at 24 h [6]: > 400 µg/mL | binding to heparan sulfate (HS) [7]: effectively bind | SARS-CoV-2 attachment to A549 (ACE2–) and Calu-3 (ACE2+) cells (SARS-CoV-2 [8]; cells treated with 12.5 μg/mL, attachment at 4 °C, compared with BSA- or DMEM-treated cells): significantly increased | SARS-CoV-2 attachment to VeroE6 cells (SARS-CoV-2 [8]; virus pre-mixed with 25 μg/mL for 1 hour, attachment at 4 °C for 1 hour, n = 4): increase | pathological and body weight changes in hamsters [9]: did not cause significant pathological and body weight changes | CC50 at 24 h [10]: > 400 µg/mL | 50% inhibitory concentration IC50 (SARS-CoV-2 (HKU001a)): 0.59 µg/mL | antiviral activity in the low salt condition (SARS-CoV-2 (HKU001a)): significantly inhibited | syncytia in bronchial epithelium (SARS-CoV-2 (B.1.1.63) [11]): reduced | inhibition of viral release (SARS-CoV-2 [12]): significantly inhibit viral release | effect on binding between the spike and ACE2 (spike-ACE2 binding): did not directly affect the binding | lung histopathology and body weight changes for 40 days [13]: no significant histopathological and consistent body weight change | syncytia formation in hamster lungs [5]: could reduce the syncytia formation | inhibition of viral replication in hamster lungs (PFU/lung) [5]: 9 fold | lung inflammation [5]: could reduce lung inflammation | IC50 (MERS-CoV): 1.01 µg/mL | inhibition of endosomal acidification in live cells [1]: could inhibit | viral RNA increase at 6 hpi compared with viral load at 1 hpi (SARS-CoV-2 [14]): less than threefold | binding to chondroitin sulfate (CS) [15]: effectively bind | inhibition of SARS-CoV-2 replication in lungs, post-exposure (SARS-CoV-2 (B.1.1.63) [16]): significantly inhibit | inhibition of infection after dilution of treated virus (SARS-CoV-2 [17]): significantly inhibit | inhibition of spike-ACE2-mediated cell fusion, 293T-Spike + 293T-ACE2 [2]: could inhibit the fusion | inhibition of cell-cell fusion, 293T-Spike + Calu-3 ([3]; 4H30 125 μg/mL, bafilomycin A1 50 nM, camostat 100 μg/mL, 6-8 h post-coculture): could not inhibit
